{"source": "paper PMC7647782", "about": "“Cytotoxic, Antioxidant, and Metabolic Enzyme Inhibitory Activities of Euphorbia cyparissias Extracts” (Oxidative Medicine and Cellular Longevity, 2020)", "target": "DrPLA2-IB (Camelus dromedarius, UniProt A0A5N4C9D4)", "sequence (A0A5N4C9D4 23-145)": "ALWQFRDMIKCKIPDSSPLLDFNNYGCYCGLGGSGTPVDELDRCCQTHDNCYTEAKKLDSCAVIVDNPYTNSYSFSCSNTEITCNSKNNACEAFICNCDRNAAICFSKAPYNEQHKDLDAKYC", "test": "Phospholipase activity inhibition, dromedary PLA2-IB", "type": "biochemical", "description": "Dromedary (DrPlA2-IB), porcine (PPPlA2-IB), and stingray group IB phospholipases (SPLA2-IB) were purified and prepared as described in our previous works and De Haas et al., respectively. Dromedary (DrPL), stingray (SPL), and porcine (PPL) lipases were also purified according to protocols optimized in previous works. The enzymes β-glucosidase, α-amylase, and XO were purchased from Sigma-Aldrich (St. Louis, MO, USA).\nThe phospholipase activities were measured based on the De Araújo and Radvanyi method. The inhibitory effect of various extracts was determined using samples of dromedary, stingray, and porcine digestive group IB phospholipases (PLA2-IB). A 10 μL sample of ethanolic or aqueous extract was mixed with 10 μL of PLA2-GIB and preincubated for 20 min at room temperature. The mixture was added to 1 mL of the substrate, which was composed of lecithin (3.5 mM) solubilized in 100 mM NaCl, 3 mM sodium taurodeoxycholate, 10 mM CaCl2, and 0.055 mM red phenol at a pH of 7.6. The activity was verified by measuring spectrophotometrically the absorbance at 558 nm for 5 min. The inhibition percentage was calculated by measuring residual activity compared to negative control assay (absence of extract). The IC50 values were determined from the curve.\nThe activities of these enzymes were measured using the pH-stat technique on olive oil emulsion at optimal conditions for enzyme activity. […]", "data": [{"smiles": "CC1(C)CC[C@]2(C(=O)O)CC[C@]3(C)C(=CC[C@@H]4[C@@]5(C)CC[C@H](O)C(C)(C)[C@@H]5CC[C@]43C)[C@@H]2C1", "note": "[Oleanolic acid, oleanolic acid]", "values": [{"measurement": "IC50", "result": 174, "unit": "µM"}]}]}
